Laboratory results as given in US8080552B2, “Pyrimidyl derivatives as protein kinase inhibitors” (Hoffmann-LA Roche Inc., priority 2006, dated 2011).

Columns and labels:
HCT 116 cells = test: CellTiter-Glo assay in HCT 116 cells; format: cell-based; conditions: 120 h; HCT 116 human colon carcinoma cells, 5 days incubation, cell viability (ATP luminescence)
Description: CellTiter-Glo™ Assay in HCT 116 Cells:
The CellTiter-Glo™ Luminescent Cell Viability Assay (Promega) is a homogeneous method of determining the number of viable cells in culture based on quantitation of the ATP present, which signals the presence of metabolically active cells.
HCT 116 cells (human colon carcinoma, ATCC-No. CCl-247) were cultivated in RPMI 1640 medium with GlutaMAX™ I (Invitrogen, Cat-No. 61870-010), 5% Fetal Calf Serum (FCS, Sigma Cat-No. F4135 (FBS)); 100 Units/ml penicillin/100 μg/ml streptomycin (=Pen/Strep from Invitrogen Cat. No. 15140). For the assay the cells were seeded in 384 well plates, 1000 cells per well, in the same medium. The next day the test compounds were added in various concentrations ranging from 30 μM to 0.0015 μM (10 concentrations, 1:3 diluted). After 5 days the CellTiter-Glo™ assay was done according to the instructions of the manufacturer (CellTiter-Glo™ Luminescent Cell Viability Assay, from Promega). In brief: the cell-plate was equilibrated to room temperature for approximately 30 minutes and than the CellTiter-Glo™ reagent was added. The contents were carefully mixed for 15 minutes to induce cell lysis. After 45 minutes the luminescent signal was measured in Victor 2, (scanning multiwell spectrophotometer, Wallac).
• Medium: RPMI 1640 with GlutaMAX™ I (Invitrogen, Cat-Nr. 61870), 5% FCS (Sigma Cat.-No. F4135), Pen/Strep (Invitrogen, Cat No. 15140). • HCT116 (ATCC-No. CCl-247): 1000 cells in 60 μl per well of 384 well plate (Greiner 781098, μClear-plate white) • After seeding incubate plates 24 h at 37° C., 5% CO2 2nd. Day: Induction (Treatment with Compounds, 10 Concentrations):
In order to achieve a final concentration of 30 μM as highest concentration 3.5 μl of 10 mM compound stock solution were added directly to 163 μl media. Then step e) of the dilution procedure described below, was followed.

VEGF-induced HUVEC cells = test: CellTiter-Glo assay in VEGF-induced HUVEC cells; format: cell-based; conditions: Homo sapiens; Table 2; VEGF-induced (20 ng/ml) HUVEC cells, 72 hours, cell viability (ATP luminescence); read-out: IC50 HCT 116
Method: CellTiter-Glo™ Assay in VEGF-Induced HUVEC Cells:
HUVEC-c (Human Umbilical Vein Endothelial Cells, from Promocell Cat-No. C-12200) cells were trypsinized, spinned down and plated in 384-well plates at 1500 cells per well in 60 μl endothelial basal medium (EBM-2 from Promocell, Cat-No. C-22211) with 0.5% Fetal Calf Serum (FCS, Sigma Cat-No. F4135 (FBS)). Cells were incubated overnight at 37° C., and the next day, test compounds (stock solution 140 μmol/l in medium with 4.2% dimethylsulfoxide (DMSO)) were added in 5 μl medium over a final concentration range of 10 μmol/l to 0.5 nmol/l and 0.3% DMSO. Compounds were tested in triplicates. After 2 hrs 5 μl VEGF (VEGF 165, R&D Systems, Cat-No. 293-VE-010, stock solution 280 ng/ml in medium) was added to a final concentration of 20 ng/ml. Cells were incubated for 72 hours at 37° C. in medium. Cell number was quantitated using CellTiter-Glo™ Luminescent Cell Viability Assay (from Promega) according to the instructions of the supplier. This assay measures the number of viable cells per well by measurement of luminescent signal based on amount of cellular ATP. IC50 are determined using a non-linear curve fit (XLfit software (ID Business Solution Ltd., Guilford, Surrey, UK)) (see also CellTiter-Glo™ assay in HCT 116 cells above).

IC50 (HCT 116 cells) [nM] | SMILES | IC50 (VEGF-induced HUVEC cells) [nM]
670 | O=C(Nc1ccc(Oc2ccnc(NCCCO)n2)cc1)Nc1cccc(OC(F)(F)F)c1 [Example 2, 1-{4-[2-(3-Hydroxy-propylamino)-pyrimidin-4-yloxy]-phenyl}-3-(3-trifluoromethoxy-phenyl)-urea] | 5 to 750
300 to 10000 | O=C(Nc1ccc(Oc2ccnc(NCCCO)n2)cc1)Nc1ccc(OC(F)(F)F)cc1 [Example 3, 1-{4-[2-(3-Hydroxy-propylamino)-pyrimidin-4-yloxy]-phenyl}-3-(4-trifluoromethoxy-phenyl)-urea] | 5 to 750
